In patent US9717746B2 (priority 2014, dated 2017):

Key:
hippocampal slices [1] = tested on: hippocampal slices
hippocampal slices [2] = tested on: hippocampal slices; remark: listed apart in the source

Structure (SMILES)	effect of antidote per se on PS (without neurotoxicant) (hippocampal slices [1])	neurotoxicity of the neurotoxicant (PS area) (hippocampal slices [2])
CCCCCCCCCCCCCCCCCCOCC(COP(=O)([O-])OCC[N+](C)(C)C)OC (racemic) [edelfosine, 1-O-octadecyl-2-O-methyl-rac-glycero-3-phosphocholine]	innocuous	
CC[C@@H]1C(=O)OC[C@@H]1Cc1cncn1C [pilocarpine]		neurotoxicity of pilocarpine increases at high potassium concentration
